The text below walks through data of PubChem BioAssay (NCI).

Molecules are shown by their SMILES.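 Dose response: 5 concentrations. Exposure: 48 h. Format: 96-well plates. Endpoint: linear interpolation; highest concentration if not reached. Definition used: TGI = concentration required for complete inhibition of growth.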 A value given as a limit tells only on which side of the number the result lay.

Test systems include A549 NSCLC; CAKI-1 renal; HS 578T breast; LOX IMVI melanoma; MDA-N; NCI-H460 lung; SN12C renal; SNB-19 CNS; TK-10 renal; UACC-257 melanoma; UACC-62 melanoma; UO-31 renal.
What all share (experiment): NCI anticancer screen, dose series, 48 h

In the case of `O=C1CSC(c2ccc(Cl)cc2Cl)N1c1ccc(Oc2ccc(Cl)cc2)c(Cl)c1` (stereo not drawn), the TGI in the test on A549 NSCLC is greater than 100 µM; with CAKI-1 renal, 98.1 µM; with HS 578T breast it was 41.9 µM; in the test with LOX IMVI melanoma, 36.6 µM; in the test with MDA-N, 98 µM; with NCI-H460 lung, 84.4 µM. Moreover, the TGI is greater than 100 µM with SN12C renal; greater than 100 µM in the test on SNB-19 CNS; greater than 100 µM with TK-10 renal; greater than 100 µM in the test on UACC-257 melanoma; 53.5 µM in the test with UACC-62 melanoma; 32.6 µM in the test on UO-31 renal.
Consider `COc1ccccc1C1(c2c(OC)c(=O)c2=O)SCCCS1`, for which the TGI in the test with A549 NSCLC, in the test with CAKI-1 renal, in the test with HS 578T breast, in the test on LOX IMVI melanoma, in the test on MDA-N and in the test with NCI-H460 lung was greater than 100 µM throughout. Moreover, the TGI in the test with SN12C renal, in the test with SNB-19 CNS, in the test with TK-10 renal, with UACC-257 melanoma, in the test with UACC-62 melanoma and in the test on UO-31 renal was greater than 100 µM throughout.
For the molecule `C=C1C(=O)O[C@H]2C[C@@H]1[C@@H](O)[C@H](O)[C@@H](C)CCCC(C)=CCC[C@@]2(C)O`, the TGI is greater than 100 µM with A549 NSCLC; 22.3 µM in the test with CAKI-1 renal; 43.9 µM in the test on HS 578T breast; 65 µM with LOX IMVI melanoma; 54.6 µM in the test with MDA-N; 54.1 µM with NCI-H460 lung. The TGI is 72.3 µM with SN12C renal; greater than 100 µM in the test with SNB-19 CNS; 30.4 µM in the test on TK-10 renal; 36.4 µM with UACC-257 melanoma; 49.2 µM with UACC-62 melanoma; 28.5 µM with UO-31 renal.
Turning to `O=C(O)[C@H](CCC[C@H]1C(=O)O[C@H](c2ccccc2)[C@H](c2ccccc2)N1C(=O)OCc1ccccc1)N[C@@H](c1ccccc1)[C@H](O)c1ccccc1`, the TGI in the test on A549 NSCLC is greater than 100 µM; in the test with CAKI-1 renal, greater than 100 µM; with HS 578T breast, 58.9 µM; with LOX IMVI melanoma, 51.9 µM; in the test on MDA-N it was 53.1 µM; in the test with NCI-H460 lung it was greater than 100 µM. For the same molecule, the TGI with SN12C renal is 42.1 µM; in the test on SNB-19 CNS it was 61.3 µM; in the test with TK-10 renal it was greater than 100 µM; with UACC-257 melanoma, greater than 100 µM; in the test on UACC-62 melanoma, 44.1 µM; in the test on UO-31 renal, greater than 100 µM.
Turning to `NC(Cc1ccc2nc3c4ccccc4c(=O)cc-3oc2c1)C(=O)O` (stereo not drawn), the TGI in the test on A549 NSCLC is greater than 100 µM; with CAKI-1 renal, greater than 100 µM; in the test on HS 578T breast, greater than 100 µM; in the test on LOX IMVI melanoma it was greater than 100 µM; in the test on MDA-N, 29.4 µM; in the test with NCI-H460 lung it was greater than 100 µM. Also, the TGI with SN12C renal, in the test with SNB-19 CNS, in the test on TK-10 renal, with UACC-257 melanoma, with UACC-62 melanoma and in the test with UO-31 renal was greater than 100 µM in each case.
For the molecule `O=C1CSC(c2cccc(Cl)c2)N1c1ccc(-c2ccc(-n3c(-c4ccccc4)nc4ccccc4c3=O)cc2)cc1` (stereo not drawn), the TGI in the test with A549 NSCLC, with CAKI-1 renal, in the test on HS 578T breast, with LOX IMVI melanoma, in the test with MDA-N and in the test with NCI-H460 lung was greater than 100 µM in each case. Moreover, the TGI in the test on SN12C renal is greater than 100 µM; with SNB-19 CNS, greater than 100 µM; in the test on TK-10 renal it was greater than 100 µM; in the test on UACC-257 melanoma, greater than 100 µM; in the test on UACC-62 melanoma, greater than 100 µM; in the test on UO-31 renal, 84.1 µM.
Turning to `CN(CCNC(=O)c1c[nH]c2c1Cc1ccccc1-2)CCNC(=O)c1c[nH]c2c1Cc1ccccc1-2`, the TGI in the test on A549 NSCLC was greater than 100 µM; in the test with CAKI-1 renal it was greater than 100 µM; in the test on HS 578T breast, greater than 100 µM; in the test on LOX IMVI melanoma, greater than 100 µM; in the test with MDA-N, 33.9 µM; in the test with NCI-H460 lung, greater than 100 µM. Besides, the TGI in the test on SN12C renal is greater than 100 µM; with SNB-19 CNS it was greater than 100 µM; with TK-10 renal it was greater than 100 µM; with UACC-257 melanoma, greater than 100 µM; with UACC-62 melanoma, 40.9 µM; with UO-31 renal, greater than 100 µM.
For the molecule `OC1(c2ccc(Cl)cc2)c2ccccc2-c2nc3ccccc3n21` (stereo not drawn), the TGI in the test with A549 NSCLC, in the test on CAKI-1 renal, with HS 578T breast, with LOX IMVI melanoma, in the test on MDA-N and with NCI-H460 lung was greater than 100 µM in each case. For the same molecule, the TGI was greater than 100 µM in the test with SN12C renal; 97.3 µM with SNB-19 CNS; greater than 100 µM with TK-10 renal; greater than 100 µM in the test on UACC-257 melanoma; greater than 100 µM with UACC-62 melanoma; greater than 100 µM with UO-31 renal.
For the molecule `C#CC(O)/C=C/CCCCCCC#CC/C=C\CC#CCCCCCCCCC(O)C#C` (stereo not drawn), the TGI was 25.8 µM with A549 NSCLC; 9.08 µM in the test with CAKI-1 renal; 38.3 µM with HS 578T breast; less than 0.0261 µM in the test with LOX IMVI melanoma; 5.48 µM in the test on MDA-N; 41.5 µM in the test on NCI-H460 lung. The TGI with SN12C renal turned out to be 4.79 µM; in the test with SNB-19 CNS, 37.5 µM; in the test with TK-10 renal, 28.2 µM; in the test on UACC-257 melanoma it was 15.1 µM; with UACC-62 melanoma, 23 µM; in the test with UO-31 renal it was 1.41 µM.
